Assay results: patent US20090155784A1, “ASSESSMENT OF ASTHMA AND ALLERGEN-DEPENDENT GENE EXPRESSION” (Wyeth, priority 2007, published 2009)

Test system: human whole blood
Test: human whole blood assay verifying inhibitory activity of the inhibitor samples
Format: cell-based

## Cc1cccc(C)c1CS(=O)(=O)NCCc1c(CCCc2ccc(C(=O)O)cc2)c2cc(Cl)ccc2n1C(c1ccccc1)c1ccccc1 [cPLA2 inhibitor, 4-{3-[1-benzhydryl-5-chloro-2-(2-{[(2,6-dimethylbenzyl)sulfonyl]amino}ethyl)-1H-indol-3-yl]propyl}benzoic acid]
  inhibitory activity in a human whole blood assay: verified
